Earlier results as cited in patent US4733002A, “Lipoxygenase inhibitor” (Green Cross Corporation, priority 1984, dated 1988).

System: 5-lipoxygenase
Settings: prior art, statement in words

| 5-lipoxygenase inhibiting activity | Structure (SMILES) |
| --- | --- |
| not a satisfactory one | O=C(O)/C=C/c1ccc(O)c(O)c1 [caffeic acid] |
| not a satisfactory one | COC(=O)C=Cc1ccc(O)c(O)c1 [its methyl ester] |
